Laboratory results taken from patent US8633245B2, “PAI-1 inhibitor” (Institute of Medicinal Molecular Design, Inc., priority 2008, dated 2014).

Target: T1, recombinant human PAI-1 (Homo sapiens, UniProt P05121)
T1 construct: purchased Molecular Innovations, Inc
Experiment: Test Example 1: human PAI-1 inhibitory activity (tPA fluorogenic substrate, pH 7.5 Tris buffer)
Type: biochemical
Conditions: Tris buffer
Description: 50 mM Tris, 150 mM NaCl, 10 μg/ml BSA, 0.01% Tween80 (SIGMA-ALDRICH Corporation)

T1 sequence (P05121 24-402): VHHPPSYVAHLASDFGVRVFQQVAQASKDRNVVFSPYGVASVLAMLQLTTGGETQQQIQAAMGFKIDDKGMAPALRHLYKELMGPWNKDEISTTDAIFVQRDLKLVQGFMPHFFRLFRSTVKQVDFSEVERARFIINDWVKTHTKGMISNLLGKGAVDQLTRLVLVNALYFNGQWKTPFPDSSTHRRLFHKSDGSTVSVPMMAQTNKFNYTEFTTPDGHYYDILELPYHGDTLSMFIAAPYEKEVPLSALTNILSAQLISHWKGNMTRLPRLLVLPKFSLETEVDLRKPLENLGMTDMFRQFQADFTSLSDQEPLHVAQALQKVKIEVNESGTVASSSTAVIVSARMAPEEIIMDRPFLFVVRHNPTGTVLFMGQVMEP

SMILES	Inhibition Rate of PAI-1 Activity (%) (Compound Concentration 10 μM)	Inhibition Rate of PAI-1 Activity (%) (Compound Concentration 25 μM)	Inhibition Rate of PAI-1 Activity (%) (Compound Concentration 5 μM)
CC(C)(C)c1ccc(CN(C(=O)C(=O)O)c2ccc(-c3cccc([N+](=O)[O-])c3)cc2)cc1 [Compound 142]	3%	33%	
O=C(O)C(=O)N(Cc1ccc(Cl)cc1)c1ccc(-c2ccc(OC(F)(F)F)cc2)cc1 [Compound 124]	49%		22%
CC(C)(C)c1ccc(COc2cc(/C=C/C(=O)O)cc(Oc3ccc(OC(F)(F)F)cc3)c2)cc1 [Compound 409]	59%	97%	26%
CC(C)(C)c1ccc(CN(C(=O)C(=O)O)c2ccc(SCc3ccc(OC(F)(F)F)cc3)cc2)cc1 [Compound 630]	89%	88%	56%
Cc1c(-c2ccc(OC(F)(F)F)cc2)cccc1N(Cc1ccc(C(C)(C)C)cc1)C(=O)C(=O)O [Compound 177]	83%	91%	43%
CC(C)(C)c1ccc(COc2cc(Oc3ccc(OC(F)(F)F)cc3)ccc2/C=C/C(=O)O)cc1 [Compound 77]	51%	73%	27%
CCCCCOc1ccc(-c2ccc(OC(F)(F)F)cc2)cc1N(CCCCCc1ccccc1)C(=O)C(=O)O [Compound 242]	94%		88%
CC(C)(C)c1ccc(COc2ccc(-c3ccc(C(C)(C)C)cc3)cc2/C=C/C(=O)O)cc1 [Compound 39]	56%	94%	25%
CC(C)(C)c1ccc(CN(C(=O)C(=O)O)c2ccc(Sc3ccc(OC(F)(F)F)cc3)cc2)cc1 [Compound 621]	95%	91%	67%
CC(C)(C)c1ccc(N(C(=O)C(=O)O)c2ccc(-c3ccc(OC(F)(F)F)cc3)cc2)cc1 [Compound 128]	89%		58%
CC(C)(C)c1ccc(COc2ccc(-c3cccc(OC(F)(F)F)c3)cc2/C=C/C(=O)O)cc1 [Compound 63]	72%	93%	38%
O=C(O)CCc1cc(-c2ccc(OC(F)(F)F)cc2)ccc1OCCCCCc1ccccc1 [Compound 104]	77%	96%	47%
CC(C)(C)c1ccc(COc2c(/C=C/C(=O)O)cccc2-c2ccc(OC(F)(F)F)cc2)cc1 [Compound 87]	81%	96%	44%
O=C(O)CCc1cc(-c2ccc(OC(F)(F)F)cc2)ccc1Oc1ccc(C(=O)O)cc1 [Compound 14]	3%		
CC(C)(C)c1ccc(CN(C(=O)C(=O)O)c2ccc(Cl)cc2Oc2ccc(OC(F)(F)F)cc2)cc1 [Compound 191]	92%	87%	74%
CC(C)Oc1ccc(N(CCCc2ccccc2)C(=O)C(=O)O)c(-c2ccc(OC(F)(F)F)cc2)c1 [Compound 239]	80%	98%	43%
COc1ccc(-c2ccc(OC(F)(F)F)cc2)cc1N(Cc1ccc(C(C)(C)C)cc1)C(=O)C(=O)O [Compound 182]	85%	89%	56%
CCCCCCN(C(=O)C(=O)O)c1ccc(Oc2ccc(OC(F)(F)F)cc2)cc1 [Compound 252]	6%	34%	3%
